Test results: patent publication US5994398A, “Arylsulfonamides as phospholipase A2 inhibitors” (Elan Pharmaceuticals, Inc., priority 1996, dated 1999)

How the values were obtained:
[1] = system: IL-1β and TNF-α release in cultured microglial cells; assay: Aβ1-40-induced cytokine (IL-1β and TNF-α) release in microglia, ELISA; assay type: cell-based, human; settings: 50 μM Aβ1-40, cultured microglia, vs vehicle control
Protocol: Cultures of human cortical astrocytes and microglia were prepared using a modification of the procedure described for cortical neurons. Cortical tissue from fetuses of 16 to 20 weeks of gestation was washed 3 times in Ca^2+ /Mg^2+ free Hanks balanced salt solution (CMF HBSS) and then dissociated by repeated pipetting. The solution was brought to a final volume of 80 mL CMF HBSS for approximately 10 mL of tissue. DNase (Sigma) was added to a final concentration of 0.05 mg/mL. 20 mL of the solution was passed through one 100 μm nylon cell strained (Falcon). The cells were then centrifuged for 5 minutes at 200×G in an IEC Clinical Centrifuge and resuspended in a trypsin/EDTA solution (0.05% trypsin+0.53 mM EDTA in HBSS; Gibco) and incubated for 20 minutes at 37° C. (10 mL of trypsin was added per 2-3 mL of tissue). The trypsin was then inactivated by adding (MEM/FBS): Modified Eagle's Medium (MEM) containing 1% glucose, 1 mM sodium pyruvate, 1 mM glutamine, and supplemented with 10% fetal bovine serum (JRH). After adding a final concentration of 0.05 mg/mL DNase the cells were resuspended and then pelleted by centrifugation and resuspended in MEM/FBS. […]
Cultured microglial cells were treated with 50 μM of Aβ1-40 or vehicle only (Control). The levels of IL-1β and TNF-α released into the culture medium were determined by ELISA assay (R&D Systems) according to manufacturer's instructions. […]

Ca^+2 -independent PLA2 = settings: Ackermann et al. (1995); cited from earlier work
cPLA2 = settings: Street et al. (1993); cited from earlier work
[2] = system: Alzheimer's Disease patients; settings: selected group of five AD patients; cited from earlier work

Molecule | stimulation of release of IL-1β and TNF-α into culture medium [1] | inhibition of Ca+2-independent PLA2 activity (Ca^+2 -independent PLA2) | inhibition of cPLA2 (cPLA2) | effects on neuropathological progression [2] | symptomatic progression of AD [2]
Aβ1-40: Amyloid-β (Aβ) peptide 1-40, stock solutions 1 mM in sterile ddH2O | found to stimulate the release of IL-1β and TNF-α |  |  |  | 
CCCCCCCCCCCCCCCC(=O)C(F)(F)F [palmitoyl trifluoromethyl ketone] |  | capable of inhibiting | capable of inhibiting |  | 
O=C1O/C(=C/Br)CCC1c1cccc2ccccc12 (stereo not drawn) [Bromoenol lactone] |  | capable of inhibiting | capable of inhibiting |  | 
COc1ccc2c(c1)c(CC(=O)O)c(C)n2C(=O)c1ccc(Cl)cc1 [indomethacin] |  |  |  | no effects on neuropathological progression were noted | allegedly useful in reducing symptomatic progression
CCCCC/C=C\C/C=C\C/C=C\C/C=C\CCCC(=O)C(F)(F)F [arachidonyl trifluoromethyl ketone] |  | capable of inhibiting | capable of inhibiting |  | 
